Reference: ChEMBL document CHEMBL5724558, “Image-based profiling of drug vulnerabilities in CRC organoids” (2024)
“And” between values parts separate entries of the source, which are not always exact repeats. Equal entries are not always repeated.

Legend:
Format in all cases: functional, Homo sapiens
Parameters in all cases: dose or concentration left out as unconfirmed
Colon cancer organoid [1] = assay: (§1) Image-based profiling of donated chemical probes and chemogenomic kinase set in O09 CRC organoid. Image analysis is performed on the sum area metric, and the data were normalized to the DMSO control. After imaging the organoid viability is measured using the OneGloEX Luciferase Assay System. The normalized viability data and sum area are reported.
Colon cancer organoid [2] = assay: as §1, with “O06” for “O09”
Colon cancer organoid [3] = assay: as §1, with “O21” for “O09”

| Compound | Cell Viability (Colon cancer organoid [1]; Replication number 1) | Cell Viability (Colon cancer organoid [1]; Replication number 2) | Cell Viability (Colon cancer organoid [2]; Replication number 1) | Cell Viability (Colon cancer organoid [2]; Replication number 2) | Cell Viability (Colon cancer organoid [3]; Replication number 1) | Cell Viability (Colon cancer organoid [3]; Replication number 2) |
| --- | --- | --- | --- | --- | --- | --- |
| CC(C)(O)[C@H](F)CN1Cc2cc(NC(=O)c3cnn4cccnc34)c(N3CCOCC3)cc2C1=O | 71.2325% and 98.662% | 94.649% and 96.9469% | 109.705% and 119.757% | 130.929% and 135.992% | 101.018% and 118.952% | 110.562% and 109.619% |
| CN(C)C(=O)c1ccc(-c2cc(C(=O)N[C@@H]3CCc4ccccc43)no2)cc1O | 44.4352% and 76.507% | 55.2789% and 66.994% | 75.5057% and 77.557% | 96.6364% and 86.0329% | 107.545% and 128.739% | 101.745% and 90.2148% |
| COc1cc(-c2cn([C@H]3CCc4ccccc4N(CC(F)(F)F)C3=O)nn2)ccc1-n1ccc(C)n1 | 31.4153% and 64.0297% | 67.1931% and 101.059% | 93.8708% and 97.1897% | 92.3722% and 127.214% | 95.5395% and 92.5614% | 105.607% and 89.2857% |
| C=CC(=O)Nc1ccc2[nH]c(=O)n(C3CCN(C(=O)c4ccc(-c5nc6cc[nH]c(=O)c6cc5-c5ccccc5)cc4)CC3)c2c1 | 86.8441% and 100.234% | 90.0124% and 91.2435% | 120.248% and 109.056% | 107.251% and 98.7147% | 115.206% and 106.481% | 111.195% and 142.785% |
| CN(C)C(=O)c1ccc(-c2cc(C(=O)N(C)C3CCCC3)no2)cc1O | 101.196% and 104.096% | 94.5921% and 98.6379% | 136.959% and 113.074% | 141.385% and 104.673% | 136.03% and 124.037% | 110.351% and 113.842% |
| CCN(Cc1ccc(Cl)cc1)c1ncc(C(=O)NCCCN2CCCC2=O)c(NC2CCCC2)n1 | 161.079% and 96.7604% | 165.307% and 110.619% | 89.2777% and 109.917% | 114.236% and 99.6728% | 106.065% and 92.3751% | 124.526% and 113.344% |
| CC(C)S(=O)(=O)c1ccc2nccc(Nc3ccc4scnc4c3)c2c1 | 127.216% and 102.228% | 64.4509% and 80.9853% | 90.1117% and 127.973% | 127.825% and 117.429% | 106.102% and 111.498% | 112.549% and 132.422% |
| c1ccc2oc(-c3csc(C4CCN(Cc5nc6ncccc6[nH]5)CC4)n3)cc2c1 | 82.621% and 84.4067% | 113.991% and 112.807% | 71.3349% and 100.567% | 106.728% and 127.102% | 94.2166% and 105.311% | 87.22% and 87.1856% |
| Cc1ccc2nc(NCCN)c3ncc(C)n3c2c1.O=C(O)C(F)(F)F.O=C(O)C(F)(F)F | 111% and 93.003% | 101.477% and 77.7459% | 119.625% and 106.83% | 110.324% and 90.8997% | 135.691% and 125.993% | 139.56% and 141.634% |
| CN(C(=O)c1cnn2cccnc12)c1cc2c(cc1N1CCOCC1)C(=O)N(C[C@@H](F)C(C)(C)O)C2 | 67.6561% and 89.4711% | 97.2316% and 93.7748% | 66.1312% and 81.8624% | 88.8257% and 96.1076% | 91.4071% and 91.6697% | 87.4763% and 99.932% |
| COc1cc(Nc2nc(C)cc(-c3cnn4nc(OC)ccc34)n2)cc(C(F)(F)F)c1 | 104.965% and 91.5636% | 103.466% and 113.093% | 101.755% and 109.64% | 94.2101% and 91.9205% | 100.392% and 88.9748% | 126.257% and 100.876% |
| CCOc1ccc(S(=O)(=O)Nc2ccc(Cl)cc2C#Cc2cnc(C(=O)[O-])cc2OC)c2ncccc12.[K+] | 79.533% and 90.784% | 112.265% and 100.119% | 90.5182% and 89.6356% | 107.269% and 105.718% | 102.626% and 139.142% | 112.375% and 81.0673% |
| CC1=CC(C)=[N+]2C1=C(CCCCc1cn(CC(=O)N3CCc4nc(NC(=O)[C@H]5CCN(C#N)C5)sc4C3)nn1)c1c(C)cc(C)n1[B-]2(F)F | 63.7608% and 86.8451% | 67.8399% and 91.9905% | 105.892% and 120.972% | 115.912% and 117.492% | 110.953% and 108.585% | 96.9264% and 89.225% |
| COc1ccccc1C(=O)Nc1cc2c(cc1N1CCNCC1C)n(C)c(=O)n2C (centres undefined) | 86.1318% and 106.414% | 94.809% and 101.774% | 207.592% and 157.772% | 161.771% and 130.961% | 113.606% and 138.145% | 93.8896% and 107.936% |
